# Results as given in patent publication US12377070B2, “Substituted sulfoximine derivatives” (CADILA HEALTHCARE LIMITED, priority 2019, dated 2025).
# Where a name gives a salt, the structure may show the parent alone.
# System: IL-1β
# Assay: In vitro IL-1β inhibition in PMA-differentiated, LPS-primed, ATP-stimulated THP1 monocytes
# Format: cell-based
# Details: Homo sapiens, THP-1, THP1 cells differentiated with PMA 100 ng/mL; primed with 500 ng/mL LPS 4 hrs; compound 30 min; 5 mM ATP 1 hr; IL-1b in supernatant; read-out: IC50 (in vitro IL-1β inhibitory activity)
# Procedure: THP1 monocytes were differentiated with PMA (100 ng/mL) and incubated at 37° C. for 20 hours in presence of 5% CO2. 2×10^5 differentiated cells were plated per well of 96 well tissue culture plates. The cells were primed using 500 ng/mL Lipopolysaccharide and incubating for 4 hrs under the same condition. The cells were then treated with various concentrations of the compounds for 30 min followed by treatment with 5 mM ATP for 1 hr. The supernatants were collected and analysed by IL-1b (Mabtech Cat #3415-1H-20) or TNF-a (Mabtech; Cat #3510-1H-20) detection kit. The data were analyzed using GraphPad Prism V7.0. Dose Response Curve (DRC) was constructed to determine the IC50 value by fitting percentage […] data to the GraphPad Prism using nonlinear regression analysis.
row,SMILES,IC50 [µM]
1,"CC(C)(C)OC(=O)N1CCC[C@@]1(C)/C=C/S(=O)(=NC#N)NC(=O)Nc1c2c(cc3c1CCC3)CCC2 (stereo partly drawn) [Example 3, tert-butyl (2S)-2-((E)-2-(N′-cyano-N-((1,2,3,5,6,7-hexahydro-s-indacen-4-yl)carbamoyl)sulfamidimidoyl)vinyl)-2-methylpyrrolidine-1-carboxylate]",19
2,"N#CN=S(=O)(/C=C/[C@H]1CCCN1S(=O)(=O)C1CCCCC1)NC(=O)Nc1c2c(cc3c1CCC3)CCC2 (stereo partly drawn) [Example 8, (E)-N′-cyano-2-((R)-1-(cyclohexylsulfonyl)pyrrolidin-2-yl)-N-((1,2,3,5,6,7-hexahydro-s-indacen-4-yl)carbamoyl)ethene-1-sulfonimidamide]",12
3,N#CN=S(=O)(/C=C/[C@H]1CCCN1S(=O)(=O)c1ccccc1C#N)NC(=O)Nc1c2c(cc3c1CCC3)CCC2 (stereo partly shown) [Example 9],11
4,"N#CN=S(=O)(/C=C/[C@H]1CCCN1)NC(=O)Nc1c2c(cc3c1CCC3)CCC2 (stereo partly drawn) [Example 10, (E)-N′-cyano-N-((1,2,3,5,6,7-hexahydro-s-indacen-4-yl)carbamoyl)-2-((R)-pyrrolidin-2-yl)ethene-1-sulfonimidamide hydrochloride]",6.4
5,"CN1CCC[C@]1(C)/C=C/S(=O)(=NC#N)NC(=O)Nc1c2c(cc3c1CCC3)CCC2 (stereo partly drawn) [Example 15, (E)-N′-cyano-2-((R)-1,2-dimethylpyrrolidin-2-yl)-N-((1,2,3,5,6,7-hexahydro-s-indacen-4-yl)carbamoyl)ethene-1-sulfonimidamide]",2.1
6,"CC(C)N1CCC[C@@]1(C)/C=C/S(=O)(=NC#N)NC(=O)Nc1c2c(cc3c1CCC3)CCC2 (stereo partly drawn) [Example 17, (E)-N′-cyano-N-((1,2,3,5,6,7-hexahydro-s-indacen-4-yl)carbamoyl)-2-((S)-1-isopropyl-2-methylpyrrolidin-2-yl)ethene-1-sulfonimidamide]",11
7,"C[C@@]1(/C=C/S(=O)(=NC#N)NC(=O)Nc2c3c(cc4c2CCC4)CCC3)CCCN1C1CCC1 (stereo partly drawn) [Example 19, (E)-N′-cyano-2-((S)-1-cyclobutyl-2-methylpyrrolidin-2-yl)-N-((1,2,3,5,6,7-hexahydro-s-indacen-4-yl)carbamoyl)ethene-1-sulfonimidamide]",4.6
8,"C[C@@]1(/C=C/S(=O)(=NC#N)NC(=O)Nc2c3c(cc4c2CCC4)CCC3)CCCN1CC1CC1 (stereo partly drawn) [Example 21, (E)-N′-cyano-2-((S)-1-(cyclopropylmethyl)-2-methylpyrrolidin-2-yl)-N-((1,2,3,5,6,7-hexahydro-s-indacen-4-yl)carbamoyl)ethene-1-sulfonimidamide]",4.6
9,"CC(C)CN1CCC[C@@]1(C)/C=C/S(=O)(=NC#N)NC(=O)Nc1c2c(cc3c1CCC3)CCC2 (stereo partly drawn) [Example 24, (E)-N′-cyano-N-((1,2,3,5,6,7-hexahydro-s-indacen-4-yl)carbamoyl)-2-((S)-1-isobutyl-2-methylpyrrolidin-2-yl)ethene-1-sulfonimidamide]",15
10,"CC(=O)N1CCC[C@@]1(C)/C=C/S(=O)(=NC#N)NC(=O)Nc1c2c(cc3c1CCC3)CCC2 (stereo partly drawn) [Example 25, (E)-2-((S)-1-acetyl-2-methylpyrrolidin-2-yl)-N′-cyano-N-((1,2,3,5,6,7-hexahydro-s-indacen-4-yl)carbamoyl)ethene-1-sulfonimidamide]",19
11,"CCN1CCC[C@@]1(C)/C=C/S(=O)(=NC#N)NC(=O)Nc1c2c(cc3c1CCC3)CCC2 (stereo partly drawn) [Example 26, (E)-N′-cyano-2-((S)-1-ethyl-2-methylpyrrolidin-2-yl)-N-((1,2,3,5,6,7-hexahydro-s-indacen-4-yl)carbamoyl)ethene-1-sulfonimidamide]",19
12,"C[C@@]1(/C=C/S(=O)(=NC#N)NC(=O)Nc2c3c(cc4c2CCC4)CCC3)CCCN1C(N)=O (stereo partly drawn) [Example 31, (2S)-2-((E)-2-(N′-cyano-N-((1,2,3,5,6,7-hexahydro-s-indacen-4-yl)carbamoyl)sulfamidimidoyl)vinyl)-2-methylpyrrolidine-1-carboxamide]",9.2
13,"CC(C)(C)OC(=O)N1CCCC1/C=C/S(=O)(=NC#N)NC(=O)Nc1c2c(cc3c1CCC3)CCC2 [Example 34, tert-butyl (2R)-2-((E)-2-(N′-cyano-N-((1,2,3,5,6,7-hexahydro-s-indacen-4-yl)carbamoyl)sulfamidimidoyl)vinyl)pyrrolidine-1-carboxylate]",19

# The next lines start with the values.
row,IC50 [µM],SMILES
1,1.5,"CN1CCC[C@@]1(C)/C=C/S(=O)(=NC#N)NC(=O)Nc1c2c(cc3c1CCC3)CCC2 (stereo partly drawn) [Example 7, (E)-N′-cyano-2-((S)-1,2-dimethylpyrrolidin-2-yl)-N-((1,2,3,5,6,7-hexahydro-s-indacen-4-yl)carbamoyl)ethene-1-sulfonimidamide]"
2,2.3,"CN1CCC[C@@H]1/C=C/S(=O)(=NC#N)NC(=O)Nc1c2c(cc3c1CCC3)CCC2 (stereo partly drawn) [Example 11, (E)-N′-cyano-N-((1,2,3,5,6,7-hexahydro-s-indacen-4-yl)carbamoyl)-2-((R)-1-methylpyrrolidin-2-yl)ethene-1-sulfonimidamide]"
3,4,"CC(C)(C)OC(=O)N1CCC[C@]1(C)/C=C/S(=O)(=NC#N)NC(=O)Nc1c2c(cc3c1CCC3)CCC2 (stereo partly drawn) [Example 13, tert-butyl (2R)-2-((E)-2-(N′-cyano-N-((1,2,3,5,6,7-hexahydro-s-indacen-4-yl)carbamoyl)sulfamidimidoyl)vinyl)-2-methylpyrrolidine-1-carboxylate]"
4,9,"C[C@]1(/C=C/S(=O)(=NC#N)NC(=O)Nc2c3c(cc4c2CCC4)CCC3)CCCN1 (stereo partly drawn) [Example 14, (E)-N′-cyano-N-((1,2,3,5,6,7-hexahydro-s-indacen-4-yl)carbamoyl)-2-((R)-2-methylpyrrolidin-2-yl)ethene-1-sulfonimidamide hydrochloride]"
5,18,"C[C@@]1(/C=C/S(=O)(=NC#N)NC(=O)Nc2c3c(cc4c2CCC4)CCC3)CCCN1C1CCCC1 (stereo partly drawn) [Example 18, (E)-N′-cyano-2-((S)-1-cyclopentyl-2-methylpyrrolidin-2-yl)-N-((1,2,3,5,6,7-hexahydro-s-indacen-4-yl)carbamoyl)ethene-1-sulfonimidamide]"
6,15,"C[C@@]1(/C=C/S(=O)(=NC#N)NC(=O)Nc2c3c(cc4c2CCC4)CCC3)CCCN1Cc1nccs1 (stereo partly drawn) [Example 29, (E)-N′-cyano-N-((1,2,3,5,6,7-hexahydro-s-indacen-4-yl)carbamoyl)-2-((S)-2-methyl-1-(thiazol-2-ylmethyl)pyrrolidin-2-yl)ethene-1-sulfonimidamide]"

# Same assay, conditions: THP1 cells differentiated with PMA 100 ng/mL; primed with 500 ng/mL LPS 4 hrs; compound 30 min; 5 mM ATP 1 hr; IL-1b in supernatant; 2,2,2-trifluoroacetate; read-out: IC50 (in vitro IL-1β inhibitory activity)
row,IC50 [µM],SMILES
1,8.9,"C[C@@]1(/C=C/S(=O)(=NC#N)NC(=O)Nc2c3c(cc4c2CCC4)CCC3)CCCN1 (stereo partly drawn) [Example 22, (E)-N′-cyano-N-((1,2,3,5,6,7-hexahydro-s-indacen-4-yl)carbamoyl)-2-((S)-2-methylpyrrolidin-2-yl)ethene-1-sulfonimidamide 2,2,2-trifluoroacetate]"

# Same assay, conditions: THP1 cells differentiated with PMA 100 ng/mL; primed with 500 ng/mL LPS 4 hrs; compound 30 min; 5 mM ATP 1 hr; IL-1b in supernatant; hydrochloride; read-out: IC50 (in vitro IL-1β inhibitory activity)
row,IC50 [µM],SMILES
1,20,"C[C@@]1(/C=C/S(=O)(=NC#N)NC(=O)Nc2c3c(cc4c2CCC4)CCC3)CCCN1 (stereo partly drawn) [Example 4, (E)-N′-cyano-N-((1,2,3,5,6,7-hexahydro-s-indacen-4-yl)carbamoyl)-2-((S)-2-methylpyrrolidin-2-yl)ethene-1-sulfonimidamide hydrochloride]"

# Same assay, conditions: THP1 cells differentiated with PMA 100 ng/mL; primed with 500 ng/mL LPS 4 hrs; compound 30 min; 5 mM ATP 1 hr; IL-1b in supernatant; read-out: IC50 (in vitro IL-1β inhibitory activity)
row,IC50 [µM],SMILES
1,3.2,"C[C@@]1(/C=C/S(=O)(=NC#N)NC(=O)Nc2c3c(cc4c2CCC4)CCC3)CCCN1 (stereo partly drawn) [Example 20, (E)-N′-cyano-N-((1,2,3,5,6,7-hexahydro-s-indacen-4-yl)carbamoyl)-2-((S)-2-methylpyrrolidin-2-yl)ethene-1-sulfonimidamide]"
